One assay relates to PC-3 cells. Briefly: DNA fragmentation assay (DNA ladder, apoptosis). The format is cell-based, human. The method, then: Cell apoptosis result in DNA fragmentation can be evaluated by the presence of a DNA ladder visualized when DNA is run on a 1.2% agarose gel. DNA ladder assay (apoptosis assay) was performed following exposure of PC-3 to various concentrations of the polypeptides for 72 hours. The polypeptides that were used in this particular experiment are polypeptide 7-21 (SEQ ID NO: 4), polypeptide PCK3145 (SEQ ID NO: 5) and polypeptide 76-94 (SEQ ID NO: 6). […] This effect was especially evident following treatment with PCK3145 (SEQ ID NO: 5), which is illustrated by FIG. 7. Lane 1 of the gel illustrated in FIG. 7 represents a lambda HindIII digest standard.
Apoptosis of PC-3 cells, following a 72 hours exposure to PCK3145 at 500 μg/ml concentration, was evaluated in supplemented media by DNA fragmentation assay. Doxorubicin was used as a reference positive control. Untreated cells and PCK3145-treated cells were harvested and the DNA was isolated. Isolated DNA was run on a 1.2% agarose gel containing Ethidium Bromide (EtBr). […] Lane 1 of the gel illustrated in FIG. 25 represents the DNA marker (100 base pair DNA ladder). Lane 2 of the gel illustrated in FIG. 25 represents a control of untreated PC-3 cells.

In assay [1] the test system is Mat Ly Lu (MLL) tumor. Briefly: Study MLL-1, Mat LyLu tumor implanted in nude mice. In kind it is in vivo. As to conditions: Doxorubicin 5 mg/kg i.v. single bolus on day 3; p=0.006. The method, then:
(§1) Studies MLL-1 and MLL-2 were performed as follows; on day 0, male Copenhagen rats were injected subcutaneously with 5×10^5 Mat LyLu cells per rat. These cells were derived from cultures of Mat LyLu cell line grown in RPMI media containing 10% (v/v) of fetal calf serum in logarithmic phase of growth. Cells were harvested from the culture flasks by trypsinization, were centrifuged at 1200 rotation per minute (rpm) and washed three timed with Hanks balanced salt solution (HBSS). Following washing, cells were counted and adjusted to a concentration of 5×10^6 cells/ml in HBSS. A 0.1 ml volume of tumor cell inoculum containing 5×10^5 cells was administered subcutaneously into the flank region of each rat. Three days after tumor cell implantation (i.e., inoculation), animals were treated daily by a subcutaneous injection of the desired polypeptide until day 13.
Experiments illustrated in FIG. 12 show the anti-tumor efficacy validation of rHuPSP94 against Mat LyLu (MLL) tumor implanted in nude mice (Protocol based on S. Garde et al.; The Prostate, 22: 225-233, 1993).
For study MLL-1 (FIG. 12), tumor-implanted nude mice were separated in different groups, each receiving various amount of rHuPSP94 or control reagents. The different groups used in these experiments are illustrated below. Each group contained 8 mice.

The test system of assay [2] is Mat Ly Lu (MLL) tumor. Description: Study MLL-2, Mat Ly Lu tumor implanted in SCID mice. Conditions: Doxorubicin 5 mg/kg i.v. single bolus on day 3; p=0.002. In kind it is in vivo. As to the method: as §1
Experiments illustrated in study MLL-2 show the anti-tumor efficacy validation of rHuPSP94 against Mat Ly Lu (MLL) tumor implanted in severe combined immunodeficiency (SCID) mice (Protocol based on S. Garde et al.; The Prostate, 22: 225-233, 1993).
For study MLL-2 (FIG. 13), tumor-implanted Scid mice were separated in different groups each receiving various amounts of rHuPSP94 or control reagents. The different groups used in these experiments are illustrated below. Each group contained 8 mice.

The next assay concerns human PC-3 tumor. Description: Studies PC3-6 and PC3-12, human PC-3 prostate cancer nude mouse xenograft model. The format is in vivo, nude mice. As to conditions: Doxorubicin 10000 μg/kg single bolus i.v. on days 3 and 11 p.t.i. From the text: Studies PC3-6 and PC3-12 (FIGS. 26-27) are consecutive group experiments designed to characterize the in vivo activity of PCK3145 in the human PC-3 prostate cancer nude mouse xenograft model and to explore relationships between dose, route and schedule of administration and the efficacy parameters of tumor growth (volume).
PC-3 cells harvested in mid-log phase were inoculated at 5×10^6 cells per mice via the subcutaneous route in the mice's back area. Tumors grown from this inoculum were excised at approximately day 32 to 35 post-tumor implantation (p.t.i) when tumor volume reached 200-300 mm^3 (i.e., cu mm). The necrotic tissue was removed and the viable tumor mass cut into small pieces (approximately 1 to 3 mm^3) were implanted SC in the flank region at two opposite sites of the mouse. Treatment with various concentrations of PCK3145 was initiated at day 3 post-tumor implantation (p.t.i) and was continued daily for 21 days. Subcutaneous injections were done below tumor growth sites. Intra-peritoneal injections were performed in the abdominal region. Intra-venous injections were performed via the lateral tail vein. The experiment was terminated 24 hours after the last treatment. Tumor measurements were taken at Days 11, 14, 16, 18, 20, 22 and 24 post-tumor implantation (p.t.i). Tumor volumes were calculated according to formula (a×b^2×0.5), where a—is the length of the long diameter, and b—is the width of the perpendicular small diameter.
Study No: PC3-6 illustrates the efficacy of PCK3145, injected subcutaneously, in tumor growth retardation in Nude mice, which have received PC-3 implants. Mice were separated in different group each receiving various amounts of PCK3145 (SEQ ID NO: 5) or control reagents. The different groups used in these experiments are illustrated in table 6 below. Each group contained 10 mice. Doxorubicin was administered as single bolus intra-venous injection on days 3 and 11 post-tumor implantation (p.t.i).
Study No: PC3-12 illustrates the efficacy of PCK3145 in tumor growth retardation in Nude mice, which have received PC-3 implants. Mice were separated in different group each receiving various amounts of PCK3145 (SEQ ID NO: 5) or control reagents. PCK3145 was injected either through intra-venous or intra-peritoneal route. The different groups used in these experiments are illustrated in table 7 below. Each group contained 9 mice.

For another assay, the system named is Dunning Mat Ly Lu tumors. Description: Studies MLL-5 and MLL-6, Mat Ly Lu tumor implanted in Copenhagen rats. Conditions: Doxorubicin 5000 μg/kg single bolus i.v. on day 3 p.t.i. In kind it is in vivo. The method, then: Anti-tumor efficacy evaluation of PCK3145 against Mat Ly Lu (MLL) tumor implanted in Copenhagen rats was performed. (Protocol based on S. Garde et al.; The Prostate, 22: 225-233, 1993). Mat LyLu tumor cells were harvested in mid-log phase from the culture flasks by trypsinization, were centrifuged at 1200 rotation per minute (rpm) and washed three timed with Hanks balanced salt solution (HBSS). Following washing, cells were counted and adjusted to a concentration of 5×10^6 cells/ml in HBSS. A 0.1 ml volume of tumor cell inoculum containing 5×10^5 cells was administered subcutaneously into the flank region of each rat. Treatment started at day 3 post-tumor implantation (p.t.i) by local subcutaneous injection (i.e., in the shaved back area just below tumor implantation site) of various PCK3145 concentrations. This treatment was continued daily for 16 days. Experiments were terminated 24 hours after the last treatment. Tumor measurements were taken at days 7, 9, 11, 14, 16 and 18. Tumor volumes are calculated according to formula (a×b^2×0.5), where a—is the length of the long diameter, b—width of the perpendicular small diameter. At day 19 tumors of individual rats were excised and weighed.
Study No: MLL-5 illustrates the efficacy of PCK3145 (SEQ ID NO: 5) compared with polypeptide 7-21 (SEQ ID NO: 4) and polypeptide 76-94 (SEQ ID NO: 6) in tumor growth retardation in Copenhagen rats, which have received Mat Ly Lu implants. Mice were separated in different groups, each receiving various amount of PCK3145 (SEQ ID NO: 5) or control reagents. PCK3145 was injected through the subcutaneous route. The different groups used in these experiments are illustrated in table 8 below. Each group contained 8 mice.
Study No: MLL-6 illustrates the efficacy of PCK3145 (SEQ ID NO: 5) in tumor growth retardation in Copenhagen rats, which have received Mat Ly Lu implants. Mice were separated in different group each receiving various amounts of PCK3145 (SEQ ID NO: 5) or control reagents. PCK3145 was injected through the subcutaneous route. The different groups used in these experiments are illustrated in table 9 below. Each group contained 8 mice. Doxorubicin was administered as single bolus via intra-venous injection on day 3 p.t.i.

SMILES strings stand for the structures.

Turning to `COc1cccc2c1C(=O)c1c(O)c3c(c(O)c1C2=O)C[C@@](O)(C(=O)CO)C[C@@H]3O[C@H]1C[C@H](N)[C@H](O)[C@H](C)O1` [Doxorubicin, reference compound], the “DNA laddering effect (FIG. 25 lane 3)” value in the assay on PC-3 cells (2 μg/ml) is reported as “DNA laddering effect”. For the same compound, the “DNA laddering effect (FIG. 7 lane 2)” value with PC-3 cells (doxorubicin-treated cells) is “DNA laddering effect”. In addition, the tumor weight reduction amounted to 48% with Mat Ly Lu (MLL) tumor [1] and 82% with Mat Ly Lu (MLL) tumor [2]. Besides, the “tumor growth (volume), study PC3-6” value in the assay on human PC-3 tumor is reported as “highly significant anti-tumor therapeutic effect”. The “reduction in tumor volumes, study MLL-6” value in the assay with Dunning Mat Ly Lu tumors is recorded as “over 80%”.

The record behind these values is patent US8551951B2, “Pharmaceutical preparations and methods for inhibiting tumors” (Aenorasis SA Pharmaceuticals and Medical Devices, priority 2000, dated 2013).
